Data: ChEMBL document CHEMBL4699427, “A3- and A2B-fluorocorroles: synthesis, X-ray characterization and antiviral activity evaluation against human cytomegalovirus infection” (RSC Med Chem, 2020)
Activity calls are given as the source filed them. The calls are words filed in the database; no cut-off is given here.

Columns and labels:
[1] = Selectivity index, ratio of CC50 for human MRC5 cells to IC50 for human Cytomegalovirus infected in human ARPE-19 cells incubated for 10 days; assay type: toxicity, cell-based; settings: time 6 day, read-out: Ratio CC50/IC50
[2] = system: Human betaherpesvirus 5; assay: Antiviral activity against human Cytomegalovirus infected in human ARPE-19 cells assessed as reduction in infection rate incubated for 10 days by Hoechst 33342 staining based microscopic analysis; assay type: functional, cell-based; settings: Human betaherpesvirus 5, ARPE-19, 240 h; read-out: IC50
[3] = Selectivity index, ratio of CC50 for human MRC5 cells to IC50 for human Cytomegalovirus infected in human MRC5 cells incubated for 6 days; assay type: toxicity, cell-based; settings: time 6 day, read-out: Ratio CC50/IC50
[4] = Cytotoxicity against human MRC5 cells assessed as reduction in cell viability incubated for 6 days by Hoechst 33342 staining based microscopic analysis; settings: time 6 day
[5] = system: Human betaherpesvirus 5; assay: Antiviral activity against Human Cytomegalovirus infected in human MRC5 cells assessed as reduction in infection rate incubated for 6 days by Hoechst 33342 staining based microscopic analysis; assay type: functional, cell-based
[6] = system: Human betaherpesvirus 5; assay: Antiviral activity against human Cytomegalovirus infected in human ARPE-19 cells assessed as reduction in infection rate incubated for 6 days by Hoechst 33342 staining based microscopic analysis; assay type: functional, cell-based
[7] = Cytotoxicity against human ARPE-19 cells assessed as reduction in cell viability incubated for 6 days by Hoechst 33342 staining based microscopic analysis; settings: time 6 day
[8] = system: Human betaherpesvirus 5; assay: Antiviral activity against human Cytomegalovirus harboring ANCHOR infected in human ARPE-19 cells assessed as reduction in infection rate at 1.25 to 2.5 uM incubated for 10 days by Hoechst 33342 staining based microscopic analysis; assay type: functional, cell-based; settings: dose microM 1.25-2.5, time 10.0 day
[9] = system: Human betaherpesvirus 5; assay: Antiviral activity against human Cytomegalovirus harboring ANCHOR infected in human MRC5 cells assessed as reduction in infection rate at 2.5 to 5 uM incubated for 6 days by Hoechst 33342 staining based microscopic analysis; assay type: functional, cell-based; settings: dose microM 2.5-5, time 6.0 day
[10] = Drug uptake in rabbit RK13 cells incubated for 24 hrs by Hoechst staining based microscopic analysis; assay type: ADME, cell-based, Oryctolagus cuniculus; settings: rk13, 24 h
[11] = Human betaherpesvirus 5, MRC5, 144 h, read-out: IC50
[12] = Human betaherpesvirus 5, ARPE-19, 144 h, read-out: IC50

Row | IC50 ([6]; arpe-19) | Structure (SMILES) | selectivity ratio at 144 h [3] | CC50 at 144 h [4] [µM] | IC50 [5, 11] [µM] | CC50 at 144 h [7] [µM] | IC50 ([5]; mrc5) | other results
1 |  | CN(C)c1c(F)c(F)c(-c2c3nc(c4ccc([nH]4)c(-c4c(F)c(F)c(N(C)C)c(F)c4F)c4ccc([nH]4)c(-c4c(F)c(F)cc(F)c4F)c4ccc2[nH]4)C=C3)c(F)c1F | > 26.2 | > 50 | 1.91 |  |  | selectivity ratio at 144 h [1]: 26.6; IC50 [2]: 1.88 µM
2 |  | O=[N+]([O-])c1ccc(-c2c3ccc([nH]3)c(-c3c(F)c(F)cc(F)c3F)c3nc(c4ccc([nH]4)c(-c4c(F)c(F)cc(F)c4F)c4ccc2[nH]4)C=C3)c(C(F)(F)F)c1 | 4.49 | 11 | 2.45 |  |  | selectivity ratio at 144 h [1]: 18.6; IC50 [2]: 0.33 µM
3 |  | Fc1cc(F)c(F)c(-c2c3nc(c4ccc([nH]4)c(-c4c(F)c(F)cc(F)c4F)c4ccc([nH]4)c(-c4ccccc4)c4ccc2[nH]4)C=C3)c1F | 3.38 | 22.3 | 6.6 |  |  | 
4 | Not Active | O=S(=O)(O)CCNc1c(F)c(F)c(-c2c3nc(c4ccc([nH]4)c(-c4c(F)c(F)c(NCCS(=O)(=O)O)c(F)c4F)c4ccc([nH]4)c(-c4c(F)c(F)c(NCCS(=O)(=O)O)c(F)c4F)c4ccc2[nH]4)C=C3)c(F)c1F |  | > 50 |  | > 50 | Not Active | 
5 |  | O=[N+]([O-])c1cc(F)cc(-c2c3ccc([nH]3)c(-c3c(F)c(F)cc(F)c3F)c3nc(c4ccc([nH]4)c(-c4c(F)c(F)cc(F)c4F)c4ccc2[nH]4)C=C3)c1 |  | 50 |  |  | Not Active | 
6 |  | O=[N+]([O-])c1cc(F)cc(-c2c3nc(c4ccc([nH]4)c(-c4cc(F)cc([N+](=O)[O-])c4)c4ccc([nH]4)c(-c4c(F)c(F)cc(F)c4F)c4ccc2[nH]4)C=C3)c1 |  | 36.7 |  |  | Not Active | 
7 |  | Fc1cc(F)c(F)c(-c2c3nc(c4ccc([nH]4)c(-c4c(F)c(F)cc(F)c4F)c4ccc([nH]4)c(-c4cccnc4)c4ccc2[nH]4)C=C3)c1F | 11.6 | 12.8 | 1.1 |  |  | 
8 |  | Fc1cc(F)c(F)c(-c2c3nc(c4ccc([nH]4)c(-c4cc(F)cc(F)c4F)c4ccc([nH]4)c(-c4cc(F)cc(F)c4F)c4ccc2[nH]4)C=C3)c1 | > 7 | > 50 | 6 | > 50 |  | Activity [8]: inactive; Activity [9]: inactive; IC50 [6, 12]: 3.8 µM; Drug uptake [10]: Active
9 | Not Active | Fc1cc(F)cc(-c2c3nc(c4ccc([nH]4)c(-c4cc(F)cc(F)c4)c4ccc([nH]4)c(-c4cc(F)cc(F)c4)c4ccc2[nH]4)C=C3)c1 |  | > 50 |  | > 50 | Not Active | 
10 | Not Active | COc1ccc(F)c(-c2c3nc(c4ccc([nH]4)c(-c4cc(OC)ccc4F)c4ccc([nH]4)c(-c4cc(OC)ccc4F)c4ccc2[nH]4)C=C3)c1 |  | > 50 |  | > 50 | Not Active | 
11 |  | Fc1cc(-c2c3nc(c4ccc([nH]4)c(-c4ccnc(F)c4)c4ccc([nH]4)c(-c4ccnc(F)c4)c4ccc2[nH]4)C=C3)ccn1 | 13 | 6.25 | 0.46 | 6.17 |  | IC50 [6, 12]: 0.15 µM
12 | Not Active | Fc1ccccc1-c1c2nc(c3ccc([nH]3)c(-c3ccccc3F)c3ccc([nH]3)c(-c3ccccc3F)c3ccc1[nH]3)C=C2 |  | > 50 |  | > 50 | Not Active | 
